Results published in patent US9879243B2, “Culture medium for cell growth and transfection” (LIFE TECHNOLOGIES CORPORATION, priority 2001, dated 2018).

The molecules below were run on CHO cells (assay: Effect of replacement compounds on the growth of CHO cells in CD CHO medium without transferrin, three passages). Conditions: 25 μM; third passage; control 5 μg/mL human holo-transferrin.
Format: cell-based, Chinese hamster
Experimental: The ability of replacement compounds to support cellular growth in the absence of transferrin was evaluated using CHO cells maintained in CD CHO medium (Invitrogen Corporation, Carlsbad, Calif., the formulation of which is described in WO 98/08934). Stock cultures containing 5 μg/mL human holo-transferrin were prepared in CD CHO medium. For replacement compound evaluation, CHO cells were established in 125 mL shaker flasks at an initial viable seeding density of 1×10^5 cells/mL in a final volume of 20 mL. All cultures were maintained at 37° C. in humidified air containing 8% CO2. To eliminate transferrin carry-over effects, cells were subcultured at 4 day intervals for a total of three passages. Positive control cultures contained 5 μg/mL human holo-transferrin while negative control cultures were established in the absence of either transferrin or replacement compound. Replacement compound stocks were prepared at 0.1M-0.2M in ddH2O and solubilized when necessary using 5N NaOH or HCl. Iron complexes were established using 0.2M replacement compound and iron stocks mixed 1:1 (v/v) and incubated for 5-10 minutes at 22° C. All solutions containing replacement compounds were filter sterilized using a 0.22 μm Millex-GV filter prior to addition to transferrin and serum-free media.
Except where noted, replacement compounds were evaluated either alone or in combination with ferric chloride or ferrous sulfate at 25 μM, 50 μM and 100 μM. Values in the table represent the mean percentage of control growth for duplicate cultures determined at the third passage.
The ability of various replacement compounds to substitute for transferrin in the culture of CHO cells was determined. When added to the medium formulation un-complexed, the replacement compound is listed alone, when added as a complex with a transition metal, the source of the transition metal is listed with the metal binding compound.
For O=C(O)c1cccc(O)c1O.[Cl][Fe]([Cl])[Cl] [2,3-Dihydrobenzoic Acid•Ferric Chloride], the “mean percentage of control growth” value was 71 percentage of control growth. Kojic Acid•Ferric Chloride was tested, and the “mean percentage of control growth” value was 89 percentage of control growth. Aspartic Acid•Ferric Chloride was tested, and the “mean percentage of control growth” value was 77 percentage of control growth. Lysine•Ferric Chloride was tested, and the “mean percentage of control growth” value was 51 percentage of control growth. For Cysteine•Ferrous Sulfate, the “mean percentage of control growth” value was 83 percentage of control growth. O=c1cc(CO)occ1O [Kojic Acid] was tested, and the “mean percentage of control growth” value was 0 percentage of control growth. For Nicotinic Acid-N-Oxide•Ferric Chloride, the “mean percentage of control growth” value was 60 percentage of control growth. In the case of O=C(O)c1ccccn1.[Cl][Fe]([Cl])[Cl] [2-Pyridinecarboxylic Acid•Ferric Chloride], the “mean percentage of control growth” value is reported as 88 percentage of control growth.

Same assay, conditions: 50 μM; third passage
For O=C(O)c1cccc(O)c1O.[Cl][Fe]([Cl])[Cl] [2,3-Dihydrobenzoic Acid•Ferric Chloride], the “mean percentage of control growth” value was 0 percentage of control growth. For Kojic Acid•Ferric Chloride, the “mean percentage of control growth” value was 88 percentage of control growth. With Aspartic Acid•Ferric Chloride the “mean percentage of control growth” value was 89 percentage of control growth. With Lysine•Ferric Chloride the “mean percentage of control growth” value was 79 percentage of control growth. With Cysteine•Ferrous Sulfate the “mean percentage of control growth” value was 64 percentage of control growth. For O=c1cc(CO)occ1O [Kojic Acid], the “mean percentage of control growth” value was 0 percentage of control growth. For Nicotinic Acid-N-Oxide•Ferric Chloride, the “mean percentage of control growth” value was 84 percentage of control growth. O=C(O)c1ccccn1.[Cl][Fe]([Cl])[Cl] [2-Pyridinecarboxylic Acid•Ferric Chloride] was tested, and the “mean percentage of control growth” value was 89 percentage of control growth.

Same assay, conditions: 100 μM; third passage
In the case of O=C(O)c1cccc(O)c1O.[Cl][Fe]([Cl])[Cl] [2,3-Dihydrobenzoic Acid•Ferric Chloride], the “mean percentage of control growth” value is reported as 0 percentage of control growth. In the case of Kojic Acid•Ferric Chloride, the “mean percentage of control growth” value is reported as 85 percentage of control growth. Aspartic Acid•Ferric Chloride was tested, and the “mean percentage of control growth” value was 112 percentage of control growth. With Lysine•Ferric Chloride the “mean percentage of control growth” value was 98 percentage of control growth. In the case of Cysteine•Ferrous Sulfate, the “mean percentage of control growth” value is reported as 45 percentage of control growth. With O=c1cc(CO)occ1O [Kojic Acid] the “mean percentage of control growth” value was 0 percentage of control growth. With Nicotinic Acid-N-Oxide•Ferric Chloride the “mean percentage of control growth” value was 105 percentage of control growth. In the case of O=C(O)c1ccccn1.[Cl][Fe]([Cl])[Cl] [2-Pyridinecarboxylic Acid•Ferric Chloride], the “mean percentage of control growth” value is reported as 100 percentage of control growth.

The molecules below were run on Sp2/0 cells (assay: Effect of replacement compounds on the growth of Sp2/0 cells in CD Hybridoma medium without transferrin, three passages). Conditions: 25 μM; third passage; control 5 μg/mL human holo-transferrin.
Format: cell-based
Experimental: The ability of replacement compounds to support cellular growth in the absence of transferrin was evaluated using Sp2/0 cells maintained in CD Hybridoma medium (Invitrogen Corporation, Carlsbad, Calif.).
Stock cultures containing 5 μg/mL human holo-transferrin were prepared in CD Hybridoma medium. For replacement compound evaluation, Sp2/0 cells were established at an initial viable cell density of 0.5×10^5 cells/mL in stationary culture using 75 cm^2 tissue culture flasks in a final volume of 20 mL. All cultures were maintained at 37° C. in humidified air containing 8% CO2. To eliminate transferrin carry-over effects, cells were subcultured at the same seeding density at 4 day intervals for a total of three passages. Positive control cultures contained 5 μg/mL human holo-transferrin while negative control cultures were established in the absence of either transferrin or replacement compound. Replacement compound stocks were prepared at 0.1M-0.2M in ddH2O and solubilized when necessary using 5N NaOH or HCl. Iron complexes were established using 0.2M replacement compound and iron stocks mixed 1:1 (v/v) and incubated for 5-10 minutes at 22° C. All solutions containing replacement compounds were filter sterilized using a 0.22 μm Millex-GV filter prior to addition to transferrin and serum-free media.
Except where otherwise noted, replacement compounds were evaluated either alone or in combination with ferric chloride or ferrous sulfate at 25 μM, 50 μM and 100 μM. Values in the table represent the mean percentage of control growth for duplicate cultures determined at the third passage.
When added to the medium formulation un-complexed, the replacement compound is listed alone, when added as a complex with a transition metal, the source of the transition metal is listed with the replacement compound.
Kojic Acid•Ferric Chloride was tested, and the “mean percentage of control growth” value was 0 percentage of control growth. With Cysteine•Ferrous Sulfate the “mean percentage of control growth” value was 85 percentage of control growth. In the case of O=c1cc(CO)occ1O [Kojic Acid], the “mean percentage of control growth” value is reported as 0 percentage of control growth. For O=C(O)c1ccccn1.[Cl][Fe]([Cl])[Cl] [2-Pyridinecarboxylic Acid•Ferric Chloride], the “mean percentage of control growth” value was 0 percentage of control growth.

Same assay, conditions: 50 μM; third passage
In the case of Kojic Acid•Ferric Chloride, the “mean percentage of control growth” value is reported as 0 percentage of control growth. With Cysteine•Ferrous Sulfate the “mean percentage of control growth” value was 79 percentage of control growth. With O=c1cc(CO)occ1O [Kojic Acid] the “mean percentage of control growth” value was 0 percentage of control growth. For O=C(O)c1ccccn1.[Cl][Fe]([Cl])[Cl] [2-Pyridinecarboxylic Acid•Ferric Chloride], the “mean percentage of control growth” value was 30 percentage of control growth.

Same assay, conditions: 100 μM; third passage
For Kojic Acid•Ferric Chloride, the “mean percentage of control growth” value was 0 percentage of control growth. In the case of Cysteine•Ferrous Sulfate, the “mean percentage of control growth” value is reported as 67 percentage of control growth. O=c1cc(CO)occ1O [Kojic Acid] was tested, and the “mean percentage of control growth” value was 0 percentage of control growth. O=C(O)c1ccccn1.[Cl][Fe]([Cl])[Cl] [2-Pyridinecarboxylic Acid•Ferric Chloride] was tested, and the “mean percentage of control growth” value was 48 percentage of control growth.

What follows are molecules tested on 293 cells (assay: Effect of replacement compounds on the growth of 293 cells in 293 SFM without transferrin, three passages). Conditions: 25 μM; third passage; control 5 μg/mL human holo-transferrin; iron equimolar where combined.
Format: cell-based, human
Experimental: Semi-confluent adherent cultures of 293 Cells (ATCC, CRL 1573) are readily adapted to suspension culture. The cells are first detached with a solution of Trypsin-EDTA (0.05% Trypsin, 0.53 mM Na4EDTA), and then resuspended in conventional medium supplemented with 10% FBS to inhibit the trypsin. The resuspended cells are centrifuged at 200×g for five minutes.
The initial seeding density of the 293 cells after conversion to suspension culture is 1×10^6 cells/mL. The cells are shaken on a rotary shaker at 150 rpm in a 37° C. incubator equilibrated with 8% CO2-92% air. […] Because 293 cells have a tendency to aggregate, the cells can be vortexed vigorously for approximately 45 seconds to obtain a predominantly single cell suspension at the time of passaging and counting. After several passages in suspension culture, the maximum achievable density can be determined.
For replacement compound evaluation, 293 cells were established in 125 mL shaker flasks at an initial viable seeding density of 2×10^5 cells/mL in a final volume of 20 mL. All cultures were maintained at 37° C. in humidified air containing 8% CO2. To eliminate transferrin carry-over effects, cells were subcultured at 4 day intervals for a total of three passages. At each subculturing, cells were seeded at a density of 2×10^5 cells/mL. Positive control cultures contained 5 μg/mL human holo-transferrin while negative control cultures were established in the absence of either transferrin or replacement compound. Replacement compound stocks were prepared at 0.1M-0.2M in ddH2O and solubilized when necessary using 5N NaOH or HCl. Iron complexes were established using 0.2 M replacement compound and iron stocks mixed 1:1 (v/v) and incubated for 5-10 minutes at 22° C. All solutions containing replacement compounds were filter sterilized using a 0.22 μm Millex-GV filter prior to addition to transferrin and serum-free media.
Except where noted, replacement compounds were evaluated either alone or in combination with ferric chloride or ferrous sulfate at 25 μM, 50 μM and 100 μM. When used in combination, the replacement compounds were used in equimolar concentration with iron ions. Values in Table 4 represent the mean percentage of control growth for duplicate cultures determined at the third passage.
When added to the medium formulation uncomplexed, the replacement compound is listed alone, when added as a complex with a transition metal, the source of the transition metal is listed with the replacement compound.
For Aspartic Acid•Ferric Chloride, the “mean percentage of control growth” value was 81 percentage of control growth. With Nicotinic Acid-N-Oxide•Ferric Chloride the “mean percentage of control growth” value was 104 percentage of control growth.

Same assay, conditions: 50 μM; third passage; control 5 μg/mL human holo-transferrin
For Aspartic Acid•Ferric Chloride, the “mean percentage of control growth” value was 86 percentage of control growth. For Nicotinic Acid-N-Oxide•Ferric Chloride, the “mean percentage of control growth” value was 80 percentage of control growth.

Same assay, conditions: 100 μM; third passage; control 5 μg/mL human holo-transferrin
With Aspartic Acid•Ferric Chloride the “mean percentage of control growth” value was 100 percentage of control growth. For Nicotinic Acid-N-Oxide•Ferric Chloride, the “mean percentage of control growth” value was 79 percentage of control growth.
